Values quoted from earlier work as cited in patent publication US20090048316A1, “Pharmaceutical composition comprising candesartan cilexetil” (priority 2007, published 2009).
Where two headings read alike, the source gives them in different places.

## CCOc1nc2cccc(C(=O)OC(C)OC(=O)OC3CCCCC3)c2n1Cc1ccc(-c2ccccc2-c2nnn[nH]2)cc1 (racemic) [Candesartan cilexetil, (±)-1-[[(cyclohexyloxy)carbonyl]oxy]ethyl-2-ethoxy-1-[[2′-(1H-tetrazol-5-yl)[1,1′biphenyl]-4-yl]methyl]-1H-benzimidazole-7-carboxylate]
In methanol
  solubility: practically insoluble
In water
  solubility: practically insoluble
